Measured values from US12612622B2, “Targeted mutagenesis using base editors” (Qi Biodesign Biotechnology Company Limited, priority 2018, dated 2026).
Read-outs that look alike come from different tables or passages of the source.

Tests used:
[1] = system: rice seedlings with OsACC mutations
Excerpt: The herbicide was applied with pressurized equipment at 0.2 MPa and a spray volume of 450 L/ha. Three weeks later, surviving seedlings were identified.

[2] = system: OsACC; experiment: Saturated de novo mutagenesis of OsACC CT domain in rice protoplasts, 20 sgRNAs; type: cell-based
Excerpt: To test the ability of STEME to achieve saturated de novo mutagenesis in rice protoplasts, it has been taken acetyl-coenzyme A carboxylase (OsACC) as an example. ACC is a key enzyme in lipid biosynthesis and its carboxyltransferase (CT) domain is the target of herbicides (FIG. 5 b). Amino acid substitutions in the CT domain can confer herbicides resistance on grass. 20 sgRNAs has been designed, including 11 sgRNAs with forward direction NGD-3′ PAMs and 9 with reverse complement 5′-HCN (H=A, T or C) PAMs spanning a 168 bp DNA sequence that encodes 56 amino acids of the CT domain (FIG. 5b). Using STEME-NG, the sgRNAs covered 90.32% of the cytosines, 40.43% of the adenines, 77.78% of the guanines, and 38.89% of the thymines in the editing windows, corresponding in all to 61.31% of the bases of the coding strand. These sgRNAs has been co-transfected individually together with STEME-NG into rice protoplasts. A3A-PBE-NG and pCas9-NG served as controls. […] No base conversions were detected in the untreated control.
We also analyzed the amino acid substitutions generated by STEME-NG in the targeted 56 amino acids. […] Of these, twenty-four, twelve, and five amino acids had one, two, and three kinds of amino acids substitution, respectively. […] Similarly, A3A-PBE-NG mutated 33 amino acids, of which twenty-six, six, and one contained one, two, and three kinds of amino acids substitution, respectively. […] Thus, it promises to be a powerful tool for directed evolution of endogenous genes by saturated de novo mutagenesis in situ.
We used the Japonica rice variety Nipponbare to prepare protoplasts. Protoplast isolation and transformation were performed as described (Shan, Q. et al. Rapid and efficient gene modification in rice and Brachypodium using TALENs. Mol. Plant 6, 1365-1368 (2013).). 10 μg each of nuclease and sgRNA plasmid DNA were introduced into the protoplasts by PEG-mediated transfection, with a mean transformation efficiency of 40-55% as measured by hemocytometer. The transfected protoplasts were incubated at 23° C. and 60 h post-transfection they were collected and genomic DNA extracted for amplicon deep sequencing.
DNA extraction. The genomic DNA of protoplasts was extracted with a DNA-Quick Plant System (Tiangen Biotech, Beijing, China). Genomic DNA of regenerated rice seedlings was extracted with CTAB, and all the seedlings in each group were sampled together. The targeted site was amplified with specific primers, and the amplicons were purified with an EasyPure PCR Purification Kit (TransGen Biotech, Beijing, China), and quantified with a NanoDrop™ 2000 Spectrophotometer (Thermo Fisher Scientific, Waltham, MA, USA).

[3] = system: OsACCase gene; experiment: Base editing (pZRH-PBE + individual sgRNAs) of OsACCase functional domain in transgenic M0 rice plants; type: in vivo; conditions: for Frequency of indel (%) / Frequency of substitution (%) / No. of WT / No. of indel / No. of substitution: transgenic M0 plants; for No. of WT / No. of indel / No. of substitution: per sgRNA target
Excerpt: For individual cloning, the following method is used. APOBEC1, partial nCas9 and UGI sequences (SEQ ID NO: 129) without BsaI were synthesized commercially (GenScript, Nanjing, China) and cloned into the pUC57 (SEQ ID NO: 130) as intermediate vector. […] The full length APOBEC1-nCas9-UGI was excised using XmaJI and SacI, then was subcloned into pHUE411 that had been digested using the same two enzymes. The resultant vector pZRH-PBE (SEQ ID NO: 133) was used to construct sgRNA expression plasmids using restriction enzyme site BsaI.

[4] = edited allele with the substitution of the same table line

| Compound | Frequency of indel (%) [3] [%] | Frequency of substitution (%) [3] [%] | No. of WT [3] | No. of indel [3] | No. of substitution [3] | No. of alleles ([3]; unedited target site sequence) | No. of alleles [3, 4] | other results |
| --- | --- | --- | --- | --- | --- | --- | --- | --- |
| CC(Oc1ccc(Oc2ncc(C(F)(F)F)cc2Cl)cc1)C(=O)O (stereo not drawn) [haloxyfop] |  |  |  |  |  |  |  | herbicide resistance of seedlings ([1]; Group 2 seedlings, S1866F heterozygotes): slightly weaker haloxyfop resistance; herbicide resistance of seedlings ([1]; Group 3 seedlings, A1884P heterozygotes): slightly weaker haloxyfop resistance; herbicide resistance of seedlings ([1]; Group 6 seedlings carrying P1927F, spray 34 g active ingredient ha-1, three weeks): clearly herbicide resistant; herbicide resistance of seedlings ([1]; Group 20 seedlings carrying W2125C, spray 34 g active ingredient ha-1, three weeks): clearly herbicide resistant |
| A3A-PBE-NG: A3A-PBE with nCas9-NG (D10A); protein SEQ ID NO: 186 |  |  |  |  |  |  |  | amino acids with one kind of amino acid substitution [2]: twenty-six; amino acids with three kinds of amino acid substitution [2]: one; amino acids with two kinds of amino acid substitution [2]: six; A>G or T>C substitutions ([2]; coding strand): no A>G or T>C substitutions were found; Cs converted to Ts in the covered bases ([2]; coding strand): 89.29%; Gs converted to As in the covered bases ([2]; coding strand): 92.86%; amino acids substituted ([2]; of the targeted 56 amino acids, silent, missense, nonsense): 33; indels ([2]; rice protoplasts, 20 sgRNAs): < 0.01% |
| R8: sgRNA in pZRH-PBE; OsACCase target site TTCCTCGTGCTGGACAAGTGTGG (SEQ ID NO: 32) (expressed or natural sequence; target site or template, no part of the molecule) | 10.5 | 59.6 | 17 | 6 | 34 | 9 |  |  |
| R5: sgRNA in pZRH-PBE; OsACCase target site CCACATGCAGTTGGGTGGTCCCA (SEQ ID NO: 15) (expressed or natural sequence; target site or template, no part of the molecule) | 0.0 | 65.4 | 18 | 0 | 34 | 12 |  |  |
| R7: sgRNA in pZRH-PBE; OsACCase target site CCCTGCTGACCCTGGTCAGCTTG (SEQ ID NO: 27) (expressed or natural sequence; target site or template, no part of the molecule) | 5.9 | 58.8 | 6 | 1 | 10 | 4 | 1 |  |
| R27: sgRNA in pZRH-PBE; OsACCase target site GAACTCGTGTGATCCTCGAGCGG (SEQ ID NO: 90) (chemistry not fully specified; the letters are possibly those of the target site) | 0.0 | 15.4 | 11 | 0 | 2 | 1 | 3 |  |
| R36: sgRNA in pZRH-PBE; OsACCase target site CCTCGAGCGGCTATCCGTGGTGT (SEQ ID NO: 115) (expressed or natural sequence; the letters are possibly those of the target site) | 0.0 | 35.7 | 9 | 0 | 5 | 3 | 1 |  |
| R2: sgRNA in pZRH-PBE; OsACCase target site CCGGTGCATACAGCGTCTTGACC (SEQ ID NO: 8) (expressed or natural sequence; target site or template, no part of the molecule) | 0 | 80 | 5 | 0 | 20 | 6 |  |  |
| R24: sgRNA in pZRH-PBE; OsACCase target site TATGTTCCTGCCTACATTGGTGG (SEQ ID NO: 83) (expressed or natural sequence; target site or template, no part of the molecule) | 14.3 | 9.5 | 16 | 3 | 2 | 2 | 2 |  |
| R29: sgRNA in pZRH-PBE; OsACCase target site CAAACTATCCCTGCTGACCCTGG (SEQ ID NO: 94) (expressed or natural sequence; target site or template, no part of the molecule) | 12.0 | 60.0 | 7 | 3 | 15 | 8 |  |  |
| R6: sgRNA in pZRH-PBE; OsACCase target site CCATCTTACTGTTTCAGATGACC (SEQ ID NO: 22) (expressed or natural sequence; target site or template, no part of the molecule) | 14.3 | 19 | 14 | 3 | 4 | 2 |  |  |
| R37: sgRNA in pZRH-PBE; OsACCase target site CCTGAGAACTCGTGTGATCCTCG (SEQ ID NO: 119) (expressed or natural sequence; target site or template, no part of the molecule) | 45.5 | 18.2 | 4 | 5 | 2 | 1 |  | No. of alleles ([3]; edited allele with the substitution of the same table line, edited allele (SEQ ID NO: 120)): 1; No. of alleles ([3]; edited allele with the substitution of the same table line, edited allele (SEQ ID NO: 121)): 2 |
| R17: sgRNA in pZRH-PBE; OsACCase target site GGAGCTTATCTTGCTCGACTTGG (SEQ ID NO: 64) (expressed or natural sequence; target site or template, no part of the molecule) | 4.8 | 42.9 | 22 | 2 | 18 | 16 |  |  |
